From PMC10017709, “Structural basis of selective cannabinoid CB2 receptor activation” (Nature Communications, 2023)
Several values for one entry are separate records, joined by “and”; a condition that tells them apart may be missing. Equal values may be shown once.

Legend:
CB2R-S285^7.39A = CB2R-S285^7.39A (Homo sapiens, UniProt P34972, S285A); assay: [35S]GTPγS assay, CB2R S285A mutant; assay type: biochemical; settings: S285A mutant
CB2R-F117^3.36A = CB2R-F117^3.36A (Homo sapiens, UniProt P34972, F117A); assay: [35S]GTPγS assay, CB2R F117A mutant; assay type: biochemical
Sequence of CB2R-F117^3.36A (P34972 whole entry F117A): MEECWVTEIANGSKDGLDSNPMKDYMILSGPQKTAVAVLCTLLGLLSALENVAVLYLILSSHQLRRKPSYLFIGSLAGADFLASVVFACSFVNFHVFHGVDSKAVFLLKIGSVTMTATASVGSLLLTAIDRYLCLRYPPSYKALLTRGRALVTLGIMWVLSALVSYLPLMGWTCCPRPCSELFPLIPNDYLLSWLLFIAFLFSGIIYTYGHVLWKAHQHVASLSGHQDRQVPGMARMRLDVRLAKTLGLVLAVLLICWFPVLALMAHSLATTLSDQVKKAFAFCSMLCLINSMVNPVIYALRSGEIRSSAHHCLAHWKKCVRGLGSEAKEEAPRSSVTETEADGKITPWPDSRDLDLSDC

CB2R-H95^2.65A = CB2R-H95^2.65A (Homo sapiens, UniProt P34972, H95A); assay: [35S]GTPγS assay, CB2R H95A mutant; assay type: biochemical; settings: H95A mutant
Sequence of CB2R-H95^2.65A (P34972 whole entry H95A): as the sequence (P34972 whole entry F117A) above, with H95A, A117F counted along it

CB2R-V261^6.51L = CB2R-V261^6.51L (Homo sapiens, UniProt P34972, V261L); assay: [35S]GTPγS assay, CB2R V261L mutant; assay type: biochemical; settings: for [35S]GTPγS binding: V2616.51L, individual replicates
Sequence of CB2R-V261^6.51L (P34972 whole entry V261L): as the sequence (P34972 whole entry F117A) above, with A117F, V261L counted along it

CB2R-E181^ECL2D = CB2R-E181^ECL2D (Homo sapiens, UniProt P34972, E181D); assay: [35S]GTPγS assay, CB2R E181D mutant; assay type: biochemical; settings: E181D mutant
Sequence of CB2R-E181^ECL2D (P34972 whole entry E181D): as the sequence (P34972 whole entry F117A) above, with A117F, E181D counted along it

CB2R-Quadruple^TM1,7 = CB2R-Quadruple^TM1,7 (Homo sapiens, UniProt P34972, C40S/K279T/K33Q/V36I); assay: [35S]GTPγS assay, CB2R quadruple mutant; assay type: biochemical; settings: for [35S]GTPγS binding: QuadrupleTM1,7, individual replicates
Sequence of CB2R-Quadruple^TM1,7 (P34972 whole entry K33Q/V36I/C40S/K279T): as the sequence (P34972 whole entry F117A) above, with K33Q, V36I, C40S, A117F, K279T counted along it

CB2R-L185^ECL2H = CB2R-L185^ECL2H (Homo sapiens, UniProt P34972, L185H); assay: [3H]CP55,940 displacement assay, CB2R L185H mutant; assay type: binding; settings: read-out: pKi (converted)
Sequence of CB2R-L185^ECL2H (P34972 whole entry L185H): as the sequence (P34972 whole entry F117A) above, with A117F, L185H counted along it

CB1R-H270^ECL2L = CB1R-H270^ECL2L (Homo sapiens, UniProt P21554, H270L); assay: [3H]CP55,940 displacement assay, CB1R H270L mutant; assay type: binding
Sequence of CB1R-H270^ECL2L (P21554 whole entry H270L): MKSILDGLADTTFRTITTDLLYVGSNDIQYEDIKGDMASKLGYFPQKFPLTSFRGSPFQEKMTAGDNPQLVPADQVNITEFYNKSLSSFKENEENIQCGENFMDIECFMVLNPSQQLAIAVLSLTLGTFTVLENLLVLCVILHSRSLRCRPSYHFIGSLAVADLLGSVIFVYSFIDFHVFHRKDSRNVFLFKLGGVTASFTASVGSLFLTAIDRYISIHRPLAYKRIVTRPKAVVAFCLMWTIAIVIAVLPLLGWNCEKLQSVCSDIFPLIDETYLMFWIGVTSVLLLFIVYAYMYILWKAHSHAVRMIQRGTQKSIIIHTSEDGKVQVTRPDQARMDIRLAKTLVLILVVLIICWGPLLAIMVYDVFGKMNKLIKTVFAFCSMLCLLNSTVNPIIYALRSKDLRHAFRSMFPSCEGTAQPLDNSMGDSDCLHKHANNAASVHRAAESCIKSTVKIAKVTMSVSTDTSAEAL

CB1R D266ECL2E = target: T1, CB1R D266ECL2E (Homo sapiens, UniProt P21554, D266E); assay: [35S]GTPγS assay, CB1R D266E mutant; assay type: biochemical
T1 construct: The WT CB1R and CB2R genes were subcloned into vector pcDNA3.1; HA signal peptide (N); expressed in transfected cells; host or cells: HEK293T (transient, membrane homogenates)
T1 sequence (P21554 whole entry D266E): as the sequence (P21554 whole entry H270L) above, with D266E, L270H counted along it

CB1R QuadrupleTM1,7 = assay: [35S]GTPγS assay, CB1R quadruple mutant; assay type: biochemical, human
[1] = tested on: cisplatin-induced nephropathy, CB2R knockout mice (CB2R−/−); assay: Cisplatin-induced nephropathy in CB2R knockout mice; assay type: in vivo
Experimental: Ten to twelve-week-old male/female C57BL/6J mice were obtained from The Jackson Laboratory (Bar Harbor, ME, USA). CB2R knockout mice (CB2R^−/−) and their wild-type littermates (CB2R^+/+) were developed as described previously and had been backcrossed to a C57BL/6J background. All animals were kept in a temperature-controlled environment (20–22 °C) with a 12 h light–dark cycle and were always allowed free access to food and water. All animal experiments reported in this manuscript complied with the National Institutes of Health “Guide for the Care and Use of Laboratory Animals” (NIH publication 86–23 revised 1985) and were approved by the Institutional Animal Care and Use Committee of the National Institute on Alcohol Abuse and Alcoholism (Bethesda, MD).
(§1) The well-established model of cisplatin-induced nephropathy was used[63]. Mice (CB2R^−/− and CB2R^+/+) were sacrificed 72 h after a single injection of cisplatin (cis-diamine platinum (II) dichloride (Sigma#P4394) 25 mg/kg i.p.; freshly dissolved in physiological saline) by cervical dislocation under deep anesthesia with 5% isoflurane, for collection of blood and tissue samples. LEI-102 was given i.p. or by oral gavage (p.o.) at 0.3, 3.0, and 10 mg/kg every day, starting 1.5 h before the cisplatin exposure. The drug was dissolved in a vehicle of DMSO:Tween 80:saline, 1:1:18. After administration of LEI‐102, mice were killed by cervical dislocation under deep anesthesia with 5% isoflurane, for collection of blood and tissue samples at the time described in the figure. The tetrad assay in mice has previously been described in detail.
Markers of kidney dysfunction (BUN and CREA), histopathology (PAS staining), immunostaining or ELISA for 3-nitrotyrosine (3-NT; Cell Biolabs #STA-305) and 4-hydroxynonenal (4-HNE; Cell Biolabs#STA-838), and real-time PCR (Primers from Qiagen, SYBER Green Vita Scientific#MEIF01301, High-Capacity cDNA Reverse Transcription Kit, Thermo Fisher Scientific#4368813) for inflammatory cytokines were performed as previously described. Tubular damage scores were determined based on the percentage of tubules showing epithelial necrosis where 0= normal; 1, <10%; 2, 10–25%; 3, 26–75%; 4, >75%. Tubular necrosis was defined as the loss of the proximal tubular brush border, blebbing of apical membranes, tubular epithelial cell detachment from the basement membrane, or intraluminal aggregation of cells and proteins. The morphometric examination was performed in a blinded manner. Ten fields were scored from each mouse kidneys at 200× magnification, and average scores were determined for each mouse. For final quantification graph, average tubular damage scores of six mice/group were plotted.

CB1R activity = assay: Mouse tetrad assay for CB1R activity; settings: in vivo, po, 25 mg/kg
Experimental: To determine whether LEI-102 maintained its selectivity for CB2R over CB1R in vivo, LEI-102 was tested in the mouse tetrad assay for CB1R activity. In this assay, four consecutive behavioral tests, related to anti-nociception, hypothermia, catalepsy, and spontaneous activity, were performed 120 min after administration of the agonist. […] There were no effects on nociceptive behavior assessed in tail withdrawal test nor on body temperature (Fig. 6 upper row). No effect was found on locomotor behavior (Fig. 6 lower row) in case of distance traveled, time spent mobile, or running speed of mice.
as §1

[2] = V261L mutant, <5 when curve fit not finished
[3] = Cisplatin + LEI-102 10 mg/kg, KO, mean, n = 6

Sequence of CB2R-S285^7.39A (P34972 whole entry S285A): as the sequence (P34972 whole entry F117A) above, with A117F, S285A counted along it

EC50 (CB2R-S285^7.39A; HEK293T membranes): 501 nM
pEC50 (CB2R-S285^7.39A; HEK293T membranes): no significant effect
Emax (%) (CB2R-S285^7.39A; at 10 µM compared to WT): 45 ± 8%
Emax (%) (CB2R-F117^3.36A; F117A mutant, at 10 µM compared to WT): 11 ± 11%
EC50 (CB2R-H95^2.65A; <5 when curve fit not finished): > 10000 nM
pEC50 (CB2R-H95^2.65A; <5 when curve fit not finished): significantly reduced
Emax (%) (CB2R-H95^2.65A; at 10 µM compared to WT): 64 ± 7%
EC50 (CB2R-V261^6.51L; [2]): 398 nM
pEC50 (CB2R-V261^6.51L; [2]): no significant effect
Emax (%) (CB2R-V261^6.51L; V261L mutant, at 10 µM compared to WT): 8 ± 4%
EC50 (CB2R-E181^ECL2D; <5 when curve fit not finished): 126 nM
Emax (%) (CB2R-E181^ECL2D; at 10 µM compared to WT): 28 ± 13%
EC50 (CB2R-Quadruple^TM1,7; Quadruple TM1,7 mutant, <5 when curve fit not finished): 631 nM
Emax (%) (CB2R-Quadruple^TM1,7; Quadruple TM1,7 mutant, at 10 µM compared to WT): 27 ± 5%
Ki (CB2R-L185^ECL2H): 50.1 nM
Displacement (%) of [3H]CP55,940 (CB1R-H270^ECL2L; CB1R H270L, 10 µM compound): 47 ± 5%
Agonist-mediated activation (CB1R D266ECL2E; CB1R D266E, 10 µM agonist): 1.1 ± 0.1 fold over its basal
effects in the tetrad assay as compared with vehicle (CB1R activity): did not produce any effects
Tail withdrawal (%MPE) (CB1R activity; 120 min): 30.0 %MPE
SMILES: CC(C)CN1C(=O)CN(Cc2ccc(-c3ccc(F)c(CNC4CCOCC4)n3)cc2)C1=O [LEI-102, 1-(4-(5-fluoro-6-(((tetrahydro-2H-pyran-4-yl)amino)methyl)pyridin-2-yl)benzyl)-3-isobutylimidazolidine-2,4-dione]
[35S]GTPγS binding (CB2R-F117^3.36A; F1173.36A, log [ligand] (M) -5, individual replicates): -10.74 percentage of WT and 22.02 percentage of WT and 22.63 percentage of WT
[35S]GTPγS binding (CB2R-V261^6.51L; log [ligand] (M) -5): 10.29 percentage of WT and 13.28 percentage of WT and -0.20 percentage of WT
[35S]GTPγS binding (CB2R-V261^6.51L; log [ligand] (M) -6): 38.11 percentage of WT and 3.14 percentage of WT and 6.06 percentage of WT
[35S]GTPγS binding (CB2R-V261^6.51L; log [ligand] (M) -7): 1.50 percentage of WT and -10.33 percentage of WT and -12.90 percentage of WT
[35S]GTPγS binding (CB2R-V261^6.51L; log [ligand] (M) -8): -5.39 percentage of WT and -14.91 percentage of WT and -5.93 percentage of WT
[35S]GTPγS binding (CB2R-V261^6.51L; log [ligand] (M) -9): -6.94 percentage of WT and -6.08 percentage of WT and -10.10 percentage of WT
[35S]GTPγS binding (CB2R-V261^6.51L; log [ligand] (M) -10): 6.99 percentage of WT and -5.10 percentage of WT and -20.01 percentage of WT
[35S]GTPγS binding (CB2R-Quadruple^TM1,7; log [ligand] (M) -5): 19.02 percentage of WT and 26.25 percentage of WT and 35.32 percentage of WT
[35S]GTPγS binding (CB2R-Quadruple^TM1,7; log [ligand] (M) -6): 18.24 percentage of WT and 27.33 percentage of WT and 15.57 percentage of WT
[35S]GTPγS binding (CB2R-Quadruple^TM1,7; log [ligand] (M) -7): -20.33 percentage of WT and 5.34 percentage of WT
[35S]GTPγS binding (CB2R-Quadruple^TM1,7; log [ligand] (M) -8): -17.90 percentage of WT and -15.60 percentage of WT and -7.82 percentage of WT
[35S]GTPγS binding (CB2R-Quadruple^TM1,7; log [ligand] (M) -9): -5.85 percentage of WT and 6.13 percentage of WT and -3.78 percentage of WT
percentage specific [3H]CP55,940 binding (CB1R-H270^ECL2L; CB1R H270ECL2L, 10 µM ligand, replicates 1-3): 43.52 percentage and 52.40 percentage and 62.26 percentage
G protein activation, fold over its basal (CB1R D266ECL2E; CB1R D266ECL2E, individual replicates): 1.059 fold over its basal and 1.264 fold over its basal and 1.015 fold over its basal
Agonist-mediated activation (CB1R QuadrupleTM1,7; CB1R Quadruple TM1,7, 10 µM agonist): 1.2 ± 0.1 fold over its basal
G protein activation, fold over its basal (CB1R QuadrupleTM1,7; CB1R QuadrupleTM1,7, individual replicates): 1.167 fold over its basal and 1.343 fold over its basal and 1.151 fold over its basal
protective effects against cisplatin-induced renal dysfunction, tubular damage, histopathological injury and oxidative-nitrative stress ([1]; CB2R knockout mice): abolished
BUN [1, 3]: 312
CREA [1, 3]: 3.9
Tubular damage score [1, 3]: 2.88
catalepsy (CB1R activity): Nor was catalepsy observed
